Tests used:
ATM = ATM (Homo sapiens (Human), UniProt Q13315); experiment: ATM biochemical assay (Reaction Biology HTRF kinase assay, 10 μM ATP); conditions: class symbol
Summary of the method: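 HTRF kinase assay with N-terminal GST-tagged human p53 (aa2-393) substrate, 10 μM ATP, in 50 mM Hepes pH 7.5, 10 mM MnCl2, 1% DMSO. Enzyme preincubated with compound 30 min, reaction 2 h at room temperature. pS15 phosphorylation read by Eu-cryptate anti-p53-pS15/anti-GST-d2 HTRF (615/665 nm).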

[1] = molecular target: PI3Kα (His-PIK3CA/PIK3R1, p110 alpha/p85 alpha) (Homo sapiens (Human), UniProt P42336); experiment: PI3Kα biochemical assay (HTRF/FRET probe); format: binding; conditions: class symbol
Description: Phosphoinositide 3-kinase α (PI3Kα) Biochemical Assay: A solution was prepared containing 0.2 nM Anti-HIS-Terbium (Cisbio, 64CUSTAZU), 3.7 nM designed-probe and 1.0 nM His-PIK3CA/PIK3R1 (p110 alpha/p85 alpha) in FRET Buffer (20 mM HEPES, 10 mM MgCl2, 0.015% Brij-35, 4 mM DTT, 0.05 mg/mL BSA).

[2] = molecular target: PI3Kδ (His-PIK3CD/PIK3R1, p110 delta/p85 alpha) (Homo sapiens (Human), UniProt O00329); experiment: PI3Kδ biochemical assay (HTRF/FRET probe); format: binding; conditions: class symbol
Description: Phosphoinositide 3-kinase (PI3K) Biochemical Assay: A solution was prepared containing 0.2 nM Anti-HIS-Terbium (Cisbio, 64CUSTAZU), 40 nM designed-probe and 1.0 nM His-PIK3CD/PIK3R1 (p110 delta/p85 alpha) in FRET Buffer (20 mM HEPES, 10 mM MgCl2, 0.015% Brij-35, 4 mM DTT, 0.05 mg/mL BSA).

DNA-PK = DNA-PK (Homo sapiens (Human), UniProt P78527); experiment: DNA-PK biochemical assay (Reaction Biology HotSpot kinase assay, 10 μM ATP); conditions: read-out: DNA-PK HotSpot 10 μM ATP IC50, class symbol
Summary of the method: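 Radiometric 33P-ATP kinase reaction in 20 mM Hepes pH 7.5, 10 mM MgCl2, 1 mM EGTA, 2 mM DTT, 1% DMSO. Compound preincubated with kinase and substrate 20 min at room temperature, then reaction run 2 h at room temperature after ATP addition. Activity read by P81 filter binding.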

PI3Kβ = PI3Kβ (Homo sapiens (Human), UniProt P42338); experiment: PI3Kβ biochemical assay (Reaction Biology ADP-Glo); conditions: class symbol
Description: Phosphoinositide 3-kinase R (PI3KP) Biochemical Assay using Reaction Biology's ADP-Glo Assay Platform:
Step 1: Lipid kinases: Reaction Biology Corporation (RBC) currently offers lipid kinases in ADP-Glo format
Step 2: Assay Description Assay principle: The kinase reactions utilize ATP and produce ADP as a byproduct. The ADP production is quantified by ADP-Glo luminescence detection. This is a 3-step reaction: First, the kinase reaction with lipid substrate is carried out in the presence of ATP, and the reaction is quenched and depleted remaining ATP with ADP-Glo™ reagent, and then finally ADP is converted to ATP which is measured using a luciferase/luciferin reaction.
Step 3: Assay Procedure: 1. Prepare kinase in freshly prepared Reaction Buffer, kinase without substrate is delivered to background wells; 2. Deliver substrate into the kinase solution and gently mix, deliver to assay wells; 3. Deliver compounds in 100% DMSO into the kinase reaction mixture by Acoustic technology (Echo550; nanoliter range), incubate for 20 min at room temperature; 4. Deliver ATP into the reaction mixture to initiate the reaction; 5. Incubate for 60 min at 30° C.; 6. Quench the reaction with ADP-Glo reagent and incubate for 40 min; 7. Add Detection Mixture and incubate for 30 min; 8. Measure luminescence.
Step 4: Data Analysis: The luminescence is converted into M ADP production based on ADP standard curves. The nonlinear regression to obtain the standard curve and IC50 values are performed using Graphpad Prism software.

ATM, sequence (Q13315 whole entry, the tested form may be a part): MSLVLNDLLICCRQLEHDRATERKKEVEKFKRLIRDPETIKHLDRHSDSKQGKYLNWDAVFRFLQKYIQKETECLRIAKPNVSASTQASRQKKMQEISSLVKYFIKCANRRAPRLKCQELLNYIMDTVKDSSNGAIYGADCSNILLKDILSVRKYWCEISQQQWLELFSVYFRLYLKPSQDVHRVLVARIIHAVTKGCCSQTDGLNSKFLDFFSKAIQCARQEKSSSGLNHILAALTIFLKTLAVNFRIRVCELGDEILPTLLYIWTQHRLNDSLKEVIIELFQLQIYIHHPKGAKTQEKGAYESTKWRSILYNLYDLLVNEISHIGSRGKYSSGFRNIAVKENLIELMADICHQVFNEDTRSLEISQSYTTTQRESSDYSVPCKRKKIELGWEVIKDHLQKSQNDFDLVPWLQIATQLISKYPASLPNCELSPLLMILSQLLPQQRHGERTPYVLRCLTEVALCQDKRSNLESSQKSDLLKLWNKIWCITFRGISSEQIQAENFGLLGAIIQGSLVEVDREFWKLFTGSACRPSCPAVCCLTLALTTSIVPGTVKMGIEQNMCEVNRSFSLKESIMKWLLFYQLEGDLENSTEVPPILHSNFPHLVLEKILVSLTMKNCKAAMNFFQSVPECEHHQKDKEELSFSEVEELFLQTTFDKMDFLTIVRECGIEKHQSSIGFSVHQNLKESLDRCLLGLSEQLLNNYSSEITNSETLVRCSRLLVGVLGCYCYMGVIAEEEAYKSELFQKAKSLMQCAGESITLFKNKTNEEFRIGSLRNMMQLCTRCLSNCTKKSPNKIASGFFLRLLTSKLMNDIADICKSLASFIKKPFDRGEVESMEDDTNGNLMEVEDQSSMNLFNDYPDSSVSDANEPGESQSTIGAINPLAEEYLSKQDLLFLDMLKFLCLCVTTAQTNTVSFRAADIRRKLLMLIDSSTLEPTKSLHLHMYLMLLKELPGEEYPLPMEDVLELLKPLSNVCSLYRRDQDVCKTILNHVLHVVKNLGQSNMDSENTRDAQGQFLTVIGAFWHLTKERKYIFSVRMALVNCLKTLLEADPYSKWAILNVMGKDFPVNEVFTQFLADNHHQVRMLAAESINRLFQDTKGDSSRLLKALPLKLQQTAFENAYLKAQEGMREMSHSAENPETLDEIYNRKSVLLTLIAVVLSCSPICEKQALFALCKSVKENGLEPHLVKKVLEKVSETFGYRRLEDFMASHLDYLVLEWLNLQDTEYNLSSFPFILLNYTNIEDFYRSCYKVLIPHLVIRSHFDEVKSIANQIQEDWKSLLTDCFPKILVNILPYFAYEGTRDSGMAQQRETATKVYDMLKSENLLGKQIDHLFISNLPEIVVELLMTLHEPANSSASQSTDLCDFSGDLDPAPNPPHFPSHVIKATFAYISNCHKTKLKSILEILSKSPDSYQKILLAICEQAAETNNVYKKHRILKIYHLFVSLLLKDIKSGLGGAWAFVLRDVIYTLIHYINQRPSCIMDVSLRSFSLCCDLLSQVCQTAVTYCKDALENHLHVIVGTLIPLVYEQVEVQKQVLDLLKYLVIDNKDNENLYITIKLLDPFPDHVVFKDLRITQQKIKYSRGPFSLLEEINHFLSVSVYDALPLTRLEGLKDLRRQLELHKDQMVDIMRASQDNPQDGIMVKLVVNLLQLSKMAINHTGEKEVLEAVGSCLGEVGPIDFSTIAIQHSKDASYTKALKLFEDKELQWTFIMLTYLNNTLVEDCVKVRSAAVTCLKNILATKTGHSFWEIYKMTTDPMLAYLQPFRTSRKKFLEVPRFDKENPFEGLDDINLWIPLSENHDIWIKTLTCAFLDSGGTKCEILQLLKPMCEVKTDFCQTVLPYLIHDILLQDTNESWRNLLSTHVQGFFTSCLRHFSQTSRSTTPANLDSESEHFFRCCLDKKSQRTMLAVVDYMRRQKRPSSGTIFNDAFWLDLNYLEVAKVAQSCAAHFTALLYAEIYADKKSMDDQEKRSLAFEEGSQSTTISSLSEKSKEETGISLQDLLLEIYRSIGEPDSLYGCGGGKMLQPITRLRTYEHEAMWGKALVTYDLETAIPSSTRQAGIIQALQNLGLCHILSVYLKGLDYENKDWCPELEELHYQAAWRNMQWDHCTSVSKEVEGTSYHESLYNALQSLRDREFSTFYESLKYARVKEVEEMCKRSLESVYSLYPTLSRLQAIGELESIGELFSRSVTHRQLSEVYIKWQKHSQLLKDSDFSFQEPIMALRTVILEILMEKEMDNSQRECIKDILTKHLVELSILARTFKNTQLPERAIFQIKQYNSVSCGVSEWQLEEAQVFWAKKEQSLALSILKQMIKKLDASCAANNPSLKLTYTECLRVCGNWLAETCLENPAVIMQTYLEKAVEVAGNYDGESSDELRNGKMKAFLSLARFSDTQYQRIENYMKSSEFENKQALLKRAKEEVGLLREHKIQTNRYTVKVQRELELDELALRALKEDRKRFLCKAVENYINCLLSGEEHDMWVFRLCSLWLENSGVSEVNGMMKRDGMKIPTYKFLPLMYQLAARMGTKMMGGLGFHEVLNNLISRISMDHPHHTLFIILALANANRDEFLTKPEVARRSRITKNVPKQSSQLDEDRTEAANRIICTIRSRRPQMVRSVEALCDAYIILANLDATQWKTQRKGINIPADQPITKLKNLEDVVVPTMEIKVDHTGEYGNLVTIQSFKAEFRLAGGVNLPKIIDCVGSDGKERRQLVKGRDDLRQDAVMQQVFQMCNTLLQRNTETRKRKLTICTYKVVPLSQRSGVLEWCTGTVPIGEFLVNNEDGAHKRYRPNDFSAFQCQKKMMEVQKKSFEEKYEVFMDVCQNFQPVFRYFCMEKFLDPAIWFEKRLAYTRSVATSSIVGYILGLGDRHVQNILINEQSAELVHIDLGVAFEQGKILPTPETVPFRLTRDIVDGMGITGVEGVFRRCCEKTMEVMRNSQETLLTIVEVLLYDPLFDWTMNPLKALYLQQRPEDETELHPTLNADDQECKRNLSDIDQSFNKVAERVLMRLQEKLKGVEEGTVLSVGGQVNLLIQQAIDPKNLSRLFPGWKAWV
PI3Kδ (His-PIK3CD/PIK3R1, p110 delta/p85 alpha), sequence (O00329 whole entry, species assumed): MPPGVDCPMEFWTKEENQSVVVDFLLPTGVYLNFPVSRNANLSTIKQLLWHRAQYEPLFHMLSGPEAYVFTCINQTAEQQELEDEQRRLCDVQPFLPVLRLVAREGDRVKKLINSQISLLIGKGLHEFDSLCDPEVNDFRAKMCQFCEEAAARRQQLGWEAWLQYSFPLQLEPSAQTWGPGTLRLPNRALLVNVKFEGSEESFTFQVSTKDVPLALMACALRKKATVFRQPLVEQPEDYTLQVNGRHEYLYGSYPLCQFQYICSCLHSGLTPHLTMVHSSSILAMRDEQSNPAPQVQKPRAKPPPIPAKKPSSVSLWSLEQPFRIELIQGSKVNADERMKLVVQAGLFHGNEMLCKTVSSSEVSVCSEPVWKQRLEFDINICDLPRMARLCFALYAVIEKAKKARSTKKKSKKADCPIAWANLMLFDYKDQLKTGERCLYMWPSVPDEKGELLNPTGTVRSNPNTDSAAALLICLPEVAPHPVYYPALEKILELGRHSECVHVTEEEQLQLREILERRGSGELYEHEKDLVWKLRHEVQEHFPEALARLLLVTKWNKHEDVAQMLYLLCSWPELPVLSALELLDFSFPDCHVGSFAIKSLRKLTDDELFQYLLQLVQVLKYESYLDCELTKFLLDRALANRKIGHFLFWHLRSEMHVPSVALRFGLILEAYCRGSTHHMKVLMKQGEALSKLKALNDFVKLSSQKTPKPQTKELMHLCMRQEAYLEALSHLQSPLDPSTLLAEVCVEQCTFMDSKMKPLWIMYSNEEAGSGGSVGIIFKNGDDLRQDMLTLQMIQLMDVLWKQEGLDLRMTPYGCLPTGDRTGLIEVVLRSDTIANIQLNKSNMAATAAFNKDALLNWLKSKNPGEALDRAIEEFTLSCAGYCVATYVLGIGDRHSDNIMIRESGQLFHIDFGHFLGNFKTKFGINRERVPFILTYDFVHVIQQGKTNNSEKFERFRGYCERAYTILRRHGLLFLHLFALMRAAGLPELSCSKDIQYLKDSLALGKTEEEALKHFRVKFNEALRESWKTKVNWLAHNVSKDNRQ
PI3Kδ (His-PIK3CD/PIK3R1, p110 delta/p85 alpha), sequence (P27986 whole entry partner, species assumed): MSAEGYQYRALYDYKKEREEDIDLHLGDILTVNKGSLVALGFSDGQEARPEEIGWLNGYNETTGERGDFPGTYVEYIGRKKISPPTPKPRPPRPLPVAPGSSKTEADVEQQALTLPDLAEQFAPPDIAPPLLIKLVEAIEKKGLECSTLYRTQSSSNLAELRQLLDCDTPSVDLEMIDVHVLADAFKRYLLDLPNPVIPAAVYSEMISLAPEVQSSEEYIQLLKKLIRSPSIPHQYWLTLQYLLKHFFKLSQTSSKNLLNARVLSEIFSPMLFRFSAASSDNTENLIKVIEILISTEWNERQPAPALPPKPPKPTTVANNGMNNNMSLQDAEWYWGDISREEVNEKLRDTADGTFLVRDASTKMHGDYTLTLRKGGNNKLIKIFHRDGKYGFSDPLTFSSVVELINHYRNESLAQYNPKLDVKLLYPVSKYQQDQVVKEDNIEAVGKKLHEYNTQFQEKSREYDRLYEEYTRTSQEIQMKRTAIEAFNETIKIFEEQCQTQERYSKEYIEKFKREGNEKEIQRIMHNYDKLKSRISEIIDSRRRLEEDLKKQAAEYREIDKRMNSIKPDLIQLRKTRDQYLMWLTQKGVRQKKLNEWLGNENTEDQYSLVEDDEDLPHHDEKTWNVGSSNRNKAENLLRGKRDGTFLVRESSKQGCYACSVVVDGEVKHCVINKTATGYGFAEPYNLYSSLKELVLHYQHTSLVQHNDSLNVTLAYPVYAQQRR

IC50 (ATM) [nM]	IC50 [1] [nM]	IC50 [2] [nM]	IC50 (DNA-PK) [nM]	IC50 (PI3Kβ) [nM]	SMILES
100 to 1000	≥ 1000	≥ 1000	< 1	≥ 1000	Cc1cc2c(cc1Nc1ncc3c(n1)n([C@H]1C[C@@H]4CC[C@H]1C4)c(=O)n3C)OCO2 [Compound 46, 9-((1S,2S,4R)-bicyclo[2.2.1]heptan-2-yl)-7-methyl-2-((6-methylbenzo[d][1,3]dioxol-5-yl)amino)-7,9-dihydro-8H-purin-8-one]
100 to 1000	≥ 1000	≥ 1000	< 1	≥ 1000	Cc1cc2c(cc1Nc1ncc3c(n1)n(C1CC4CCC1CC4)c(=O)n3C)OCO2 (stereo not drawn) [Compound 43, 9-((1s,4s)-bicyclo[2.2.2]octan-2-yl)-7-methyl-2-((6-methylbenzo[d][1,3]dioxol-5-yl)amino)-7,9-dihydro-8H-purin-8-one]
100 to 1000	≥ 1000	≥ 1000	< 1	≥ 1000	Cc1cc2c(cc1Nc1ncc3c(n1)n(C14CCC(O)(CC1)C4)c(=O)n3C)OCO2 [Compound 2, 9-(4-hydroxybicyclo[2.2.1]heptan-1-yl)-7-methyl-2-((6-methylbenzo[d][1,3]dioxol-5-yl)amino)-7,9-dihydro-8H-purin-8-one]
